# Test results reported in patent EP4282522A1, “SILICA-SUPPORTED IONIC LIQUIDS FOR THE REMOVAL OF C[…] AQUEOUS SAMPLES” (Universidade de Aveiro, priority 2022, dated 2023).
# Tested on: Danio rerio embryos
# Conditions: 96 h exposure, cyclophosphamide solution 1306 mg L^-1
# [1] = materials: maintenance water after 1.5 h contact with the material
# Procedure: Aiming to identify the ability of this material to decrease and/or remove the toxicity of the water samples treated, an ecotoxicity test was carried out resorting to assays with Danio rerio embryos. […] Assays with embryos of D. rerio were performed according to the Organisation for Economic Co-operation and Development (OECD) guideline 236 on Fish Embryo Acute Toxicity (FET) Test (OECD, 2013), with small adaptations.
# Zebrafish embryos were exposed for 96 h, at a temperature of 26 ± 1 °C and a 16:8h light/dark photoperiod, and observations were made at each 24 h (i.e., 24, 48, 72, and 96 hours) with the help of a stereomicroscope (Zoom-SMZ 1500, Nikon Corporation).
# In an embodiment, besides the mortality endpoint (that included coagulated eggs, arrested development, or lack of heartbeat), the sublethal endpoints concerning the hatching rate, final body length, and malformations (such as tail and skeletal malformations, oedemas, and delayed development) (Lammer et al. 2009; "Is the fish embryo toxicity test (FET) with the zebrafish (Danio rerio) a potential alternative for the fish acute toxicity test?" Comp. Biochem. Physiol. Part - C: Toxicol. Pharmacol. 149 (2):196 - 209) were also evaluated. […] Mortality, hatching rate, and percentage of abnormalities were expressed considering the total number of embryos exposed to the different treatments, while the final body length endpoint was evaluated concerning the number of alive larvae at the end of the assay.
structure (smiles),measurement,setting,value
O=P1(N(CCCl)CCCl)NCCCO1 (stereo not drawn) [cyclophosphamide],final body length of zebrafish larvae (average length),control 5.4 ± 0.2 cm,4.4 ± 0.4 cm
same,malformations,[1],52%
same,mortality,[1],20%
